Test systems include SF-539; A549; COLO 205; OVCAR-8; SW-620; HOP-92; SN12C; UO-31; NCI-H522; 786-0; SNB-78; UACC-62; MOLT-4; IGROV-1; OVCAR-4; NCI-H23; HT-29; HCT-15.
Experiment in all cases: growth of human tumour cells (NCI), 48 h

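All cell lines were grown in 96-well plates and treated with compound for 48 hours. GI50 = concentration required for 50% inhibition of growth.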 Active and inactive are the calls of the source. Rule as the data show it: active = GI50 up to about 1.1 µM and inactive = higher.

`CC(C)c1cccc(=O)c(O)c1`: the GI50 in the assay with SF-539 is 3.21 µM (inactive); with A549 it was 2.83 µM (inactive); with COLO 205, 1.37 µM (inactive); in the assay on OVCAR-8, 1.72 µM (inactive); in the assay with SW-620, 1.79 µM (inactive); in the assay on HOP-92 it was 1.75 µM (inactive). For the same molecule, the GI50 with SN12C was 5.51 µM (inactive); with UO-31, 3.94 µM (inactive); in the assay on NCI-H522 it was 1.39 µM (inactive); in the assay on 786-0, 3.4 µM (inactive); in the assay with SNB-78, 2.1 µM (inactive); in the assay with UACC-62, 2.67 µM (inactive). For the same molecule, the GI50 in the assay on MOLT-4 is 1.02 µM (active); in the assay on IGROV-1, 7.8 µM (inactive); in the assay on OVCAR-4, 2.56 µM (inactive); in the assay on NCI-H23 it was 2.53 µM (inactive); with HT-29 it was 3.07 µM (inactive); with HCT-15, 1.54 µM.

For the molecule `COC1C=CC(C(=O)[N+]2=Cc3[nH]c4ccccc4c3CC2)O1` (configuration not stated), the GI50 in the assay with SF-539, in the assay with A549, in the assay on COLO 205, in the assay on OVCAR-8, in the assay with SW-620 and with HOP-92 was > 100 µM (inactive) in each case. In addition, the GI50 in the assay with SN12C was > 100 µM (inactive); in the assay on UO-31, > 100 µM (inactive); in the assay on NCI-H522 it was 34.9 µM (inactive); in the assay on 786-0 it was > 100 µM (inactive); in the assay with SNB-78, > 100 µM (inactive); with UACC-62, > 100 µM (inactive). The GI50 in the assay on MOLT-4 was 34.9 µM (inactive); with IGROV-1, > 100 µM (inactive); in the assay on OVCAR-4, > 100 µM (inactive); with NCI-H23 it was > 100 µM (inactive); in the assay on HT-29, > 100 µM (inactive); in the assay on HCT-15, 78.5 µM.

As to `CCN1C(=O)N(C)C(O)c2c1nc1ccccn1c2=O` (configuration not stated), the GI50 in the assay with SF-539 is 24.6 µM (inactive); in the assay with A549 it was 34.2 µM (inactive); with COLO 205, 21.2 µM (inactive); in the assay with OVCAR-8 it was 18.9 µM (inactive); with SW-620 it was 35.9 µM (inactive); in the assay with HOP-92, 25.6 µM (inactive). For the same molecule, the GI50 was 23.3 µM (inactive) with SN12C; 47.6 µM (inactive) with UO-31; 25.3 µM (inactive) in the assay on NCI-H522; 28.5 µM (inactive) in the assay with 786-0; 28.1 µM (inactive) with SNB-78; 0.103 µM (active) in the assay on UACC-62. The GI50 in the assay with MOLT-4 is 32.1 µM (inactive); with IGROV-1, 32.7 µM (inactive); in the assay with OVCAR-4 it was 33 µM (inactive); in the assay with NCI-H23 it was 24.9 µM (inactive); in the assay with HT-29, 27.6 µM (inactive); with HCT-15, 32.2 µM.

For the molecule `C/C(CC(=O)Nc1ccc(C)cc1)=N\NC(N)=S`, the GI50 in the assay on SF-539, in the assay with A549, with COLO 205, in the assay on OVCAR-8, in the assay on SW-620 and in the assay with HOP-92 was > 100 µM (inactive) in each case. In addition, the GI50 is > 100 µM (inactive) with UO-31; 94 µM (inactive) in the assay on NCI-H522; > 100 µM (inactive) with 786-0; > 100 µM (inactive) in the assay with SNB-78; > 100 µM (inactive) with UACC-62; > 100 µM (inactive) in the assay with MOLT-4. In addition, the GI50 in the assay on IGROV-1, in the assay with NCI-H23 and with HT-29 was > 100 µM (inactive) each time.

As to `Cc1[nH]c2ccccc2c1C1Cc2ccccc2N1C(=O)/C=C\C(=O)O` (configuration not stated), the GI50 in the assay on SF-539 was 28.4 µM (inactive); with A549 it was > 100 µM (inactive); in the assay with COLO 205 it was 30.4 µM (inactive); in the assay with SW-620, 32.4 µM (inactive); with HOP-92, 38.2 µM (inactive); in the assay with SN12C, 29.3 µM (inactive). In addition, the GI50 in the assay on UO-31 was > 100 µM (inactive); with NCI-H522, 27.6 µM (inactive); with 786-0, 38.7 µM (inactive); with SNB-78, 61.8 µM (inactive); in the assay with UACC-62 it was 26.2 µM (inactive); with MOLT-4, 28.4 µM (inactive). Further, the GI50 in the assay on IGROV-1 is 58.1 µM (inactive); in the assay on OVCAR-4 it was > 100 µM (inactive); in the assay with NCI-H23 it was 56.4 µM (inactive); in the assay on HT-29, 66.1 µM (inactive); in the assay with HCT-15, above 100 µM.

For `CCc1ccccc1NC(=O)C(=O)C(C#N)c1c(Cl)cccc1Cl` (configuration not stated), the GI50 in the assay on SF-539, with A549, with SW-620, with HOP-92, with SN12C and in the assay on UO-31 was > 100 µM (inactive) in each case. Further, the GI50 in the assay on NCI-H522, with 786-0, in the assay with SNB-78, in the assay with UACC-62, with MOLT-4 and in the assay on IGROV-1 was > 100 µM (inactive) in each case. The GI50 is > 100 µM (inactive) in the assay with NCI-H23, > 100 µM (inactive) with HT-29 and above 100 µM in the assay on HCT-15.

Turning to `CC(=O)OCCOCn1c2ccccc2c2c3c(c4c5ccccc5n(COCCOC(C)=O)c4c21)C(=O)N(Cc1ccccc1)C3=O`, the GI50 in the assay on SF-539 was > 100 µM (inactive); in the assay with A549, > 100 µM (inactive); with COLO 205, > 100 µM (inactive); in the assay on OVCAR-8 it was > 100 µM (inactive); in the assay on SW-620, > 100 µM (inactive); with HOP-92, 55.5 µM (inactive). In addition, the GI50 in the assay with SN12C, with UO-31, with 786-0, in the assay with SNB-78, in the assay with UACC-62 and with MOLT-4 was > 100 µM (inactive) in each case. Moreover, the GI50 was > 100 µM (inactive) in the assay with IGROV-1; > 100 µM (inactive) with OVCAR-4; > 100 µM (inactive) with NCI-H23; > 100 µM (inactive) in the assay with HT-29; above 100 µM in the assay with HCT-15.

Take `Cc1ccc(-c2cc(-c3ccccc3)c(C#N)c(=O)[nH]2)cc1`: the GI50 in the assay on SF-539 is > 100 µM (inactive); in the assay with A549 it was > 100 µM (inactive); with COLO 205, > 100 µM (inactive); in the assay on OVCAR-8 it was > 100 µM (inactive); with SW-620, > 100 µM (inactive); with HOP-92, 56.9 µM (inactive). Moreover, the GI50 in the assay on SN12C, in the assay with UO-31, in the assay with NCI-H522, in the assay with 786-0, in the assay on SNB-78 and in the assay on UACC-62 was > 100 µM (inactive) in each case. Besides, the GI50 with MOLT-4 is > 100 µM (inactive); with IGROV-1, > 100 µM (inactive); in the assay on OVCAR-4, 79.1 µM (inactive); in the assay on NCI-H23, > 100 µM (inactive); in the assay on HT-29, > 100 µM (inactive); in the assay on HCT-15, above 100 µM.

Take `NNC(=S)N/N=C/C(Cl)=C(\Cl)C(=O)O`: the GI50 in the assay on SF-539, in the assay on A549, with OVCAR-8, in the assay with SW-620, in the assay with HOP-92 and in the assay with SN12C was > 100 µM (inactive) throughout. The GI50 in the assay with UO-31 is > 100 µM (inactive); in the assay with NCI-H522 it was 0.228 µM (active); in the assay with 786-0, > 100 µM (inactive); in the assay on SNB-78, > 100 µM (inactive); with UACC-62 it was > 100 µM (inactive); in the assay with MOLT-4, > 100 µM (inactive). In addition, the GI50 in the assay on IGROV-1 was > 100 µM (inactive); with OVCAR-4, > 100 µM (inactive); in the assay on NCI-H23, > 100 µM (inactive); in the assay on HT-29 it was > 100 µM (inactive); in the assay with HCT-15 it was above 100 µM.

For `NNC(=O)/C(=C/c1cccc([N+](=O)[O-])c1)NC(=O)c1ccccc1`, the GI50 in the assay on SF-539, in the assay on A549, with COLO 205, in the assay on OVCAR-8, with SW-620 and in the assay on HOP-92 was > 100 µM (inactive) throughout. Further, the GI50 in the assay with SN12C, with UO-31, in the assay with NCI-H522, with 786-0, with SNB-78 and with MOLT-4 was > 100 µM (inactive) throughout. Besides, the GI50 in the assay on IGROV-1 was > 100 µM (inactive); in the assay with OVCAR-4 it was > 100 µM (inactive); in the assay on NCI-H23 it was > 100 µM (inactive); with HT-29, > 100 µM (inactive); with HCT-15, above 100 µM.

As for `CCOC(=O)C1=C(C)N(NC(=O)Nc2ccccc2)C2(N)N(NC(=O)Nc3ccccc3)C(C)=C(C(=O)OCC)C12C(=O)OCC` (configuration not stated), the GI50 in the assay with SF-539 is 22.1 µM (inactive); with A549, 38.3 µM (inactive); in the assay on COLO 205 it was 1.85 µM (inactive); with OVCAR-8, 35.9 µM (inactive); in the assay on SW-620 it was 69.7 µM (inactive); in the assay with HOP-92, 18.8 µM (inactive). Moreover, the GI50 is 1.66 µM (inactive) with SN12C; 61.7 µM (inactive) with UO-31; 70 µM (inactive) with NCI-H522; 45.3 µM (inactive) in the assay with 786-0; 42.4 µM (inactive) with SNB-78; 49.3 µM (inactive) in the assay on UACC-62. Moreover, the GI50 with IGROV-1 was > 100 µM (inactive); with OVCAR-4, 29.5 µM (inactive); with NCI-H23, 64 µM (inactive); in the assay on HT-29, 54.3 µM (inactive); in the assay on HCT-15, above 100 µM.

For `O=C1C2C3C=C4c5ccccc5N(c5ccccc5)C4(C2C(=O)N1c1ccccc1)C1C(=O)N(c2ccccc2)C(=O)C31` (configuration not stated), the GI50 was > 100 µM (inactive) in the assay on A549; 35.6 µM (inactive) in the assay on COLO 205; > 100 µM (inactive) in the assay with OVCAR-8; > 100 µM (inactive) in the assay with SW-620; 2.4 µM (inactive) with HOP-92; > 100 µM (inactive) with SN12C. For the same molecule, the GI50 in the assay with UO-31 was > 100 µM (inactive); with 786-0, > 100 µM (inactive); in the assay on SNB-78, > 100 µM (inactive); in the assay on UACC-62 it was 3.61 µM (inactive); with MOLT-4, 3.3 µM (inactive); in the assay with IGROV-1, > 10 µM (inactive). The GI50 was > 100 µM (inactive) in the assay with NCI-H23, 6.56 µM (inactive) in the assay on HT-29 and above 100 µM in the assay with HCT-15.

The record behind these values is ChEMBL document CHEMBL1201862, “PubChem BioAssay data set” (2004).
